Starred links: 1 amine or outer side, 2 acyl side, 3 side chain; linkers in the order of their positions; H or OH if unused. Positions of bridges follow the written chain, without caps; N, C: chain ends. Non-standard residues stand in square brackets, D forms with d. Residues, ends and D or L forms follow the SMILES beside them. ξ: configuration not given here. *: point of attachment. Glu(NHSO2Me) = CS(=O)(=O)NC(=O)CC[C@H](N)C(=O)O; NMePhe(3-Cl) = CN[C@@H](Cc1cccc(Cl)c1)C(=O)O; hPhe(4-Cl) = N[C@@H](CCc1ccc(Cl)cc1)C(=O)O; Tyr(3-F) = N[C@@H](Cc1ccc(O)c(F)c1)C(=O)O; NMeW = CN[C@@H](Cc1c[nH]c2ccccc12)C(=O)O; hNle(7,7-F2) = N[C@@H](CCCCC(F)F)C(=O)O; Ethyl(2-morpholino) = C1CN(CC*)CCO1; Gly(NCH2CH2Ph) = O=C(O)CNCCc1ccccc1; X9 = O=C(CN(CCOc1ccccc1)[*:1])[*:2]; NMeF = CN[C@@H](Cc1ccccc1)C(=O)O; NMeGABA = CN(CCCC(=O)[*:2])[*:1]; NMeI = CC[C@H](C)[C@H](NC)C(=O)O; hPhe = N[C@@H](CCc1ccccc1)C(=O)O; ξThr(3R) = C[C@@H](O)C(N)C(=O)O; CH2CH(OH)CF3 = OC(C*)C(F)(F)F; NMeL = CN[C@@H](CC(C)C)C(=O)O; NMeV = CN[C@H](C(=O)O)C(C)C; NMeAbu = CC[C@H](NC)C(=O)O; NMeS = CN[C@@H](CO)C(=O)O; NMeA = CN[C@@H](C)C(=O)O; Piperidide = C1CCN(*)CC1; Abu = CC[C@H](N)C(=O)O; NBuGly = CCCCNCC(=O)O; Isopentyl = CC(C)CC*; NPrGly = CCCNCC(=O)O; ξS = NC(CO)C(=O)O; Sar = CNCC(=O)O; tBu = CC(C)(C)*; Propyl = CCC*
experiment: Caco-2 membrane permeability, improved method as used in the following Examples (96-well, 20 to 24 h preincubation); assay type: in vitro ADME; conditions: human, Caco-2, Caco-2
Protocol: In the following Examples, membrane permeability was measured in accordance with the improved method established as described above. Specifically, Caco-2 cells were cultured on a 96-well Transwell for three weeks, after which DMEM+FaSSIF (1% DMSO)+compound were added to the apical side and DMEM was added to the basal side, and the cells were preincubated at 5% CO2, 37° C., and 80 rpm for 20 to 24 hours. Following the preincubation, measurement of membrane permeability was initiated by removing the preincubation solution on the apical and basal sides by suction, washing the membrane, and adding FaSSIF/HBSS buffer (1% DMSO) (pH 6.0) containing the compound to the apical side and HBSS buffer (4% BSA) (pH 7.4) to the basal side. Each well was shaken at 5% CO2, 37° C., and 80 rpm, and 180 minutes after the initiation, the sample on the basal side was collected and the permeation amount was measured by LC/MS. The membrane permeability coefficient (Papp) was calculated from the permeation amount. Herein, the terms “Caco-2 (cm/sec)” in the columns in the tables and “Papp (cm/sec)” are used in the same meaning.

Point of comparison: CCCCN1CC(=O)N(C)[C@@H](CC(C)C)C(=O)N[C@H](C(=O)N2CCCCC2)CC(=O)N(C)[C@@H](CC)C(=O)NC(COCCN2CCOCC2)C(=O)N(C)[C@@H](CC(C)C)C(=O)N(C)[C@@H](CC)C(=O)N[C@@H](C(C)C)C(=O)N(C)[C@@H](Cc2ccccc2)C(=O)N(C)[C@@H](CC(C)C)C(=O)N[C@@H]([C@@H](C)O)C1=O (stereo partly drawn) [pd483] ([NMeAbu][ξS](Ethyl(2-morpholino))[NMeL][NMeAbu]V[NMeF][NMeL]T[NBuGly][NMeL]D-Piperidide; lactam N-11), Papp A→B at 180 min 1.9 ×10⁻⁶ cm/s. Against it:
- CC[C@@H]1NC(=O)[C@H](Cc2ccccc2)N(C)C(=O)[C@H](COCCC(C)C)N(C)C(=O)[C@H](CC(C)C)NC(=O)[C@H](C)N(C)C(=O)C[C@@H](C(=O)N2CCCCC2)NC(=O)[C@H](CC(C)C)N(C)C(=O)CN(C)C(=O)[C@H]([C@@H](C)O)NC(=O)[C@H](CC(C)C)N(C)C(=O)[C@H](Cc2ccccc2)N(C)C1=O [pd307] ([NMeA]L[NMeS](Isopentyl)[NMeF][Abu][NMeF][NMeL]T[Sar][NMeL]D-Piperidide; lactam N-11) — 1.5-fold higher, 2.9 ×10⁻⁶ cm/s
- CCCOC[C@@H]1NC(=O)[C@H](CC(C)C)N(C)C(=O)[C@H](C(C)C)NC(=O)[C@H](Cc2ccccc2)N(C)C(=O)[C@@H](C(C)C)NC(=O)C[C@@H](C(=O)N2CCCCC2)NC(=O)[C@H](C)N(C)C(=O)[C@H](Cc2ccccc2)N(C)C(=O)[C@H](COC(C)(C)C)NC(=O)[C@H](CC(C)C)N(C)C(=O)CN(C)C1=O [pd326] ([dV][NMeF]V[NMeL]S(Propyl)[Sar][NMeL]S(tBu)[NMeF][NMeA]D-Piperidide; lactam N-11) — 1.7-fold higher, 3.3 ×10⁻⁶ cm/s
- CC(C)C[C@@H]1NC(=O)[C@H](CC(C)C)N(C)C(=O)CN(C)C(=O)[C@H]([C@@H](C)O)NC(=O)[C@H](CC(C)C)N(C)C(=O)[C@H](CCc2ccc(Cl)cc2)NC(=O)[C@H](C)N(C)C(=O)[C@@H](C(C)C)NC(=O)C[C@@H](C(=O)N2CCCCC2)NC(=O)[C@H](C(C)C)N(C)C(=O)[C@H](Cc2ccccc2)N(C)C1=O [pd360] ([dV][NMeA][hPhe(4-Cl)][NMeL]T[Sar][NMeL]L[NMeF][NMeV]D-Piperidide; lactam N-11) — within 1.5-fold, 1.6 ×10⁻⁶ cm/s
- CCCN1CC(=O)N(C)[C@@H](Cc2ccccc2)C(=O)N[C@@H](CCCCC(F)F)C(=O)N(C)[C@@H](CC(C)C)C(=O)N[C@@H]([C@@H](C)O)C(=O)N(C)CC(=O)N(C)[C@@H](Cc2ccccc2)C(=O)N(C)[C@@H](CC(C)C)C(=O)N[C@@H](COC(C)(C)C)C(=O)N(C)[C@@H](C(C)C)C(=O)N[C@H](C(=O)N2CCCCC2)CC1=O [pd336] ([NPrGly][NMeF][hNle(7,7-F2)][NMeL]T[Sar][NMeF][NMeL]S(tBu)[NMeV]D-Piperidide; lactam N-11) — within 1.5-fold, 2.5 ×10⁻⁶ cm/s
- CCCCN1CC(=O)N(C)[C@@H](CC(C)C)C(=O)N[C@H](C(=O)N2CCCCC2)CC(=O)N(C)[C@@H](CC(C)C)C(=O)N[C@@H](CC(C)C)C(=O)N(C)[C@@H](CC)C(=O)N(C)[C@@H](Cc2ccccc2)C(=O)N[C@@H](CCC(=O)NS(C)(=O)=O)C(=O)N(C)[C@@H](Cc2cccc(Cl)c2)C(=O)N(C)[C@@H](CC(C)C)C(=O)NC([C@@H](C)O)C1=O (stereo partly drawn) [pd64] ([NMeL]L[NMeAbu][NMeF][Glu(NHSO2Me)][NMePhe(3-Cl)][NMeL][ξThr(3R)][NBuGly][NMeL]D-Piperidide; lactam N-11) — 13-fold lower, 0.15 ×10⁻⁶ cm/s
- CC[C@H](C)[C@@H]1NC(=O)[C@H](CC(C)C)N(C)C(=O)[C@@H](C)NC(=O)C[C@@H](C(=O)N2CCCCC2)NC(=O)[C@H](CC)N(C)C(=O)[C@H](Cc2ccccc2)N(C)C(=O)[C@H](COC(C)(C)C)NC(=O)[C@H](CC(C)C)N(C)C(=O)[C@H](CC)N(C)C(=O)[C@H]([C@@H](C)O)NC(=O)CN(CCc2ccccc2)C1=O [pd414] ([dA][NMeL]I[Gly(NCH2CH2Ph)]T[NMeAbu][NMeL]S(tBu)[NMeF][NMeAbu]D-Piperidide; lactam N-11) — within 1.5-fold, 1.6 ×10⁻⁶ cm/s
- CC(C)C[C@H]1NC(=O)C[C@@H](C(=O)N2CCCCC2)NC(=O)[C@H](C)N(C)C(=O)[C@H](CC(C)C)N(C)C(=O)[C@H](COC(C)(C)C)NC(=O)[C@H](CC(C)C)N(C)C(=O)CN(C)C(=O)[C@H]([C@@H](C)O)NC(=O)[C@H](CC(C)C)N(C)C(=O)[C@H](CCc2ccccc2)NC(=O)[C@H](Cc2ccccc2)N(C)C1=O [pd314] ([dL][NMeF][hPhe][NMeL]T[Sar][NMeL]S(tBu)[NMeL][NMeA]D-Piperidide; lactam N-11) — within 1.5-fold, 1.4 ×10⁻⁶ cm/s
- CC[C@H](C)[C@@H]1NC(=O)[C@H](CC(C)C)N(C)C(=O)CCCN(C)C(=O)C[C@@H](C(=O)N2CCCCC2)NC(=O)[C@H](CC(C)C)N(C)C(=O)[C@H](C)N(C)C(=O)[C@H]([C@@H](C)O)NC(=O)[C@H](CC(C)C)N(C)C(=O)[C@H](COCCC(C)C)NC(=O)[C@H](Cc2ccccc2)N(C)C(=O)[C@H](Cc2ccccc2)N(C)C1=O [pd302] ([NMeGABA][NMeL]I[NMeF][NMeF]S(Isopentyl)[NMeL]T[NMeA][NMeL]D-Piperidide; lactam N-11) — within 1.5-fold, 1.4 ×10⁻⁶ cm/s
- CC[C@H](C)[C@@H]1NC(=O)[C@H](CC(C)C)N(C)C(=O)[C@H](COCC(O)C(F)(F)F)NC(=O)[C@H](Cc2ccccc2)N(C)C(=O)CN(C)C(=O)C[C@@H](C(=O)N2CCCCC2)NC(=O)[C@H](CC(C)C)N(C)C(=O)[C@H](COC(C)(C)C)NC(=O)[C@H](CC(C)C)N(C)C(=O)[C@H](Cc2ccccc2)N(C)C(=O)CN(C)C1=O (stereo partly drawn) [pd504] ([Sar][NMeF]S(CH2CH(OH)CF3)[NMeL]I[Sar][NMeF][NMeL]S(tBu)[NMeL]D-Piperidide; lactam N-11) — 2.2-fold higher, 4.1 ×10⁻⁶ cm/s
- CCCCN1CC(=O)N(C)[C@@H](C(C)C)C(=O)N[C@H](C(=O)N2CCCCC2)CC(=O)N(C)[C@@H](CC)C(=O)N[C@@H](CC(C)C)C(=O)N(C)[C@@H](CC(C)C)C(=O)N(C)[C@@H](Cc2ccccc2)C(=O)N[C@@H](CCC(=O)NS(C)(=O)=O)C(=O)N(C)[C@@H](Cc2ccccc2)C(=O)N(C)[C@@H](CC(C)C)C(=O)N[C@@H](CC(C)C)C1=O [pd69] ([NMeAbu]L[NMeL][NMeF][Glu(NHSO2Me)][NMeF][NMeL]L[NBuGly][NMeV]D-Piperidide; lactam N-11) — lower, < 0.14 ×10⁻⁶ cm/s
- CCCCN1CC(=O)N(C)[C@@H](C)C(=O)N[C@@H](COC(C)(C)C)C(=O)N(C)[C@@H](CC(C)C)C(=O)N(CCOc2ccccc2)CC(=O)N[C@H](C(=O)N2CCCCC2)CC(=O)N[C@H](CC(C)C)C(=O)N(C)[C@@H](Cc2ccccc2)C(=O)N[C@@H](CC(C)C)C(=O)N(C)[C@@H](CC)C(=O)N[C@@H]([C@@H](C)O)C1=O [pd422] ([dL][NMeF]L[NMeAbu]T[NBuGly][NMeA]S(tBu)[NMeL][X9]D-Piperidide; lactam N-11) — 1.9-fold lower, 1 ×10⁻⁶ cm/s

same assay, conditions: human, Caco-2, Caco-2 (cm/sec)

Point of comparison: CC[C@H](C)[C@@H]1NC(=O)[C@H](CC(C)C)N(C)C(=O)[C@@H](C)NC(=O)C[C@@H](C(=O)N2CCCCC2)NC(=O)[C@H](C)N(C)C(=O)[C@H](Cc2ccccc2)N(C)C(=O)[C@H](COC(C)(C)C)NC(=O)[C@H](CC(C)C)N(C)C(=O)CN(C)C(=O)[C@H](Cc2ccc(O)c(F)c2)NC(=O)[C@H](CC(C)C)N(C)C1=O [pd124] ([dA][NMeL]I[NMeL][Tyr(3-F)][Sar][NMeL]S(tBu)[NMeF][NMeA]D-Piperidide; lactam N-11), Papp A→B at 180 min 0.32 ×10⁻⁶ cm/s. Against it:
- CC(C)C[C@@H]1NC(=O)[C@H](Cc2ccccc2)N(C)C(=O)[C@H](C)NC(=O)C[C@@H](C(=O)N2CCCCC2)NC(=O)[C@H](Cc2ccccc2)N(C)C(=O)[C@H](Cc2ccccc2)N(C)C(=O)[C@H](COC(C)(C)C)NC(=O)[C@H](CC(C)C)N(C)C(=O)CN(C)C(=O)[C@H]([C@@H](C)O)NC(=O)[C@H](CC(C)C)N(C)C1=O [pd217] (A[NMeF]L[NMeL]T[Sar][NMeL]S(tBu)[NMeF][NMeF]D-Piperidide; lactam N-11) — 3.4-fold higher, 1.1 ×10⁻⁶ cm/s
- CC[C@H](C)[C@@H]1NC(=O)[C@H](Cc2ccccc2)N(C)C(=O)[C@@H](C)NC(=O)C[C@@H](C(=O)N2CCCCC2)NC(=O)[C@H](CC(C)C)N(C)C(=O)[C@H](C)N(C)C(=O)[C@H](COC(C)(C)C)NC(=O)[C@H](C)N(C)C(=O)CN(C)C(=O)[C@H](Cc2ccc(O)cc2)NC(=O)[C@H](CC(C)C)N(C)C1=O [pd112] ([dA][NMeF]I[NMeL]Y[Sar][NMeA]S(tBu)[NMeA][NMeL]D-Piperidide; lactam N-11) — 2.9-fold lower, 0.11 ×10⁻⁶ cm/s
- CC[C@H](C)[C@@H]1NC(=O)[C@H](CC(C)C)N(C)C(=O)CCCN(C)C(=O)C[C@@H](C(=O)N2CCCCC2)NC(=O)[C@H](CC(C)C)N(C)C(=O)[C@H](C)N(C)C(=O)[C@H](Cc2ccc(O)cc2)NC(=O)[C@H](CC(C)C)N(C)C(=O)[C@H](COC(C)(C)C)NC(=O)[C@H](CC(C)C)N(C)C(=O)[C@H](Cc2ccccc2)N(C)C1=O [pd129] ([NMeGABA][NMeL]I[NMeF][NMeL]S(tBu)[NMeL]Y[NMeA][NMeL]D-Piperidide; lactam N-11) — 2-fold lower, 0.16 ×10⁻⁶ cm/s
- CC[C@H](C)[C@H]1C(=O)N[C@@H]([C@@H](C)O)C(=O)N(C)CC(=O)N(C)[C@@H](CC(C)C)C(=O)N[C@H](C(=O)N2CCCCC2)CC(=O)N(C)[C@@H](CC(C)C)C(=O)N[C@@H](CC(C)C)C(=O)N(C)[C@@H](CC(C)C)C(=O)N(C)[C@@H](Cc2c[nH]c3ccccc23)C(=O)N[C@@H](CC(C)C)C(=O)N(C)[C@@H](Cc2ccccc2)C(=O)N1C [pd111] ([NMeL]L[NMeL][NMeW]L[NMeF][NMeI]T[Sar][NMeL]D-Piperidide; lactam N-11) — 2-fold lower, 0.16 ×10⁻⁶ cm/s
